≈ marks a conversion by molar mass, not a printed value.
Tests used:
Type in all cases: functional
[1] = tested on: Mycobacterium tuberculosis; assay: Antitubercular activity against isoniazid, rifampicin and ethambutol-resistant Mycobacterium tuberculosis clinical isolate after 28 days by agar dilution method; settings: 672 h
[2] = tested on: Mycobacterium tuberculosis; assay: Ratio of rifampicin MIC to compound MIC for multidrug-resistant Mycobacterium tuberculosis clinical isolate
[3] = tested on: Mycobacterium tuberculosis; assay: Ratio of isoniazid MIC to compound MIC for multidrug-resistant Mycobacterium tuberculosis clinical isolate
[4] = tested on: Mycobacterium tuberculosis; assay: Ratio of ethambutol MIC to compound MIC for multidrug-resistant Mycobacterium tuberculosis clinical isolate
[5] = tested on: Mycobacterium tuberculosis; assay: Ratio of ciprofloxacin MIC to compound MIC for multidrug-resistant Mycobacterium tuberculosis clinical isolate

| SMILES | MIC [1] | also measured |
| --- | --- | --- |
| C[C@H](c1ccccc1)N1CC2=C(OC(N)=C(c3nc(-c4ccccc4)no3)C2c2ccccc2Cl)/C(=C/c2ccccc2Cl)C1 (stereo in doubt; 9e) | 1.23 µM (≈ 0.779 µg/mL) |  |
| Cc1ccc(/C=C2\CN([C@H](C)c3ccccc3)CC3=C2OC(N)=C(c2nc(-c4ccc(Cl)cc4)no2)C3c2ccc(C)cc2)cc1 (stereo in doubt; 9d) | 1.24 µM (≈ 0.778 µg/mL) |  |
| CC[C@@H](CO)NCCN[C@@H](CC)CO [ETHAMBUTOL] | 61.2 µM (≈ 12.5 µg/mL) |  |
| CO[C@H]1/C=C/O[C@@]2(C)Oc3c(C)c(O)c4c(O)c(c(/C=N/N5CCN(C)CC5)c(O)c4c3C2=O)NC(=O)/C(C)=C\C=C\[C@H](C)[C@H](O)[C@@H](C)[C@@H](O)[C@@H](C)[C@H](OC(C)=O)[C@@H]1C [RIFAMPIN] | 3.8 µM (≈ 3.13 µg/mL) |  |
| C[C@H](c1ccccc1)N1CC2=C(OC(N)=C(c3nc(-c4ccccc4)no3)C2c2ccccc2)/C(=C/c2ccccc2)C1 (stereo in doubt; 10a) | 5.54 µM (≈ 3.13 µg/mL) |  |
| NNC(=O)c1ccncc1 [ISONIAZID] | 11.4 µM (≈ 1.56 µg/mL) |  |
| C[C@H](c1ccccc1)N1CC2=C(OC(N)=C(c3nc(-c4ccc(Cl)cc4)no3)C2c2ccccc2)/C(=C/c2ccccc2)C1 (stereo in doubt; 10b) | 2.6 µM (≈ 1.56 µg/mL) |  |
| C[C@H](c1ccccc1)N1CC2=C(OC(N)=C(c3nc(-c4ccc(Cl)cc4)no3)C2c2ccc(Cl)cc2Cl)/C(=C/c2ccc(Cl)cc2Cl)C1 (stereo in doubt; 9h) | 0.14 µM (≈ 0.103 µg/mL) | Ratio [2]: 27.1; Ratio [3]: 81.3; Ratio [4]: 437; Ratio [5]: 269.5 |
| C[C@H](c1ccccc1)N1CC2=C(OC(N)=C(c3nc(-c4ccc(Cl)cc4)no3)C2c2ccccc2Cl)/C(=C/c2ccccc2Cl)C1 (stereo in doubt; 9f) | 0.6 µM (≈ 0.401 µg/mL) |  |
| C[C@H](c1ccccc1)N1CC2=C(OC(N)=C(c3nc(-c4ccccc4)no3)C2c2ccc(Cl)cc2Cl)/C(=C/c2ccc(Cl)cc2Cl)C1 (stereo in doubt; 9g) | 0.57 µM (≈ 0.4 µg/mL) |  |

From ChEMBL document CHEMBL2034835, “A solvent free, four-component synthesis and 1,3-dipolar cycloaddition of 4(H)-pyrans with nitrile oxides: synthesis and discovery of antimycobacterial activity of enantiomerically pure 1,2,4-oxadiazoles” (2012)
